The source of these data is ChEMBL document CHEMBL5620374, “Synthesis and bioevaluation of novel stilbene-based derivatives as tubulin/HDAC dual-target inhibitors with potent antitumor activities in vitro and in vivo” (Eur J Med Chem, 2023).

Activity calls are given as the source filed them. The calls are words filed in the database; no cut-off is given here.

Series [1] concerns K562. Briefly: Induction of apoptosis in human K562 cells assessed as chromatin aggregation at 2 to 8 nM incubated for 48 hrs by Hoechst 33342 staining based analysis. It is filed as functional, cell-based. As to conditions: dose 2-8 nM.
Series [2] in a line: Toxicity in ICR mouse allografted with mouse H22 cells assessed as body weight reduction at 10 to 20 mg/kg, iv qd for 17 days consecutively. It is filed as organism-based. Particulars: in vivo, dose 10-20 mg/kg, time 17 day.
The test system of series [3] is K562. Briefly: Inhibition of mitochondrial membrane potential in human K562 cells assessed as green fluorescence intensity at 8 nM incubated for 48 hrs by JC-1 staining based flow cytometry (reference value: 6.63 +/- 0.27 %). It is filed as functional. (In flow cytometry, cells or beads pass a laser one at a time.)
Series [4] concerns K562. Kind of series: Induction of apoptosis in human K562 cells assessed as necrotic cells at 4 nM incubated for 48 hrs by Annexin V/PI staining based flow cytometry (reference value: 2.56 +/- 0.22 %). It is filed as functional.

For `C=C(c1ccc(OC)c(OC(F)C(=O)NO)c1)c1cc(C)nc2ccccc12` (centres undefined), the outcome in the series on K562 [1] was Active. The Activity result in series [2] is given as “Non-Toxic”; with K562 [4], 0.17%. Also, the Flu intensity in the series with K562 [3] was 42.31%.
